Experimental data published in PubChem BioAssay (NCI).
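96-well plates; 48 h exposure; 5 concentrations. Endpoints by linear interpolation between flanking doses. Not reached: highest tested concentration assigned. GI50 is the concentration that inhibits growth by half. TGI is the concentration that stops growth completely.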

Legend:
Assay in all cases: NCI-60 cell line screen, 48 h
HCT-116 colon = test system: HCT-116 colon
U251 CNS = test system: U251 CNS
HL-60(TB) leukemia = test system: HL-60(TB) leukemia
LOX IMVI melanoma = test system: LOX IMVI melanoma
SF-539 CNS = test system: SF-539 CNS
RPMI-8226 leukemia = test system: RPMI-8226 leukemia
OVCAR-8 ovarian = test system: OVCAR-8 ovarian
UACC-62 melanoma = test system: UACC-62 melanoma
OVCAR-4 ovarian = test system: OVCAR-4 ovarian
CAKI-1 renal = test system: CAKI-1 renal
RXF 393 renal = test system: RXF 393 renal
EKVX NSCLC = test system: EKVX NSCLC
NCI-H460 lung = test system: NCI-H460 lung
SF-295 CNS = test system: SF-295 CNS
NCI/ADR-RES ovarian = test system: NCI/ADR-RES ovarian
A498 renal = test system: A498 renal
HOP-62 NSCLC = test system: HOP-62 NSCLC
HOP-92 NSCLC = test system: HOP-92 NSCLC
UACC-257 melanoma = test system: UACC-257 melanoma
UO-31 renal = test system: UO-31 renal
PC-3 prostate = test system: PC-3 prostate
SW-620 colon = test system: SW-620 colon
SN12C renal = test system: SN12C renal
SK-MEL-2 melanoma = test system: SK-MEL-2 melanoma
CCRF-CEM leukemia = test system: CCRF-CEM leukemia
HCC-2998 colon = test system: HCC-2998 colon
TK-10 renal = test system: TK-10 renal
IGROV1 ovarian = test system: IGROV1 ovarian
MDA-MB-231 breast = test system: MDA-MB-231 breast
NCI-H522 lung = test system: NCI-H522 lung
SK-MEL-28 melanoma = test system: SK-MEL-28 melanoma
KM12 colon = test system: KM12 colon
SNB-75 CNS = test system: SNB-75 CNS
SK-MEL-5 melanoma = test system: SK-MEL-5 melanoma
MDA-MB-435 = test system: MDA-MB-435
HT29 colon = test system: HT29 colon
MCF7 breast = test system: MCF7 breast
HS 578T breast = test system: HS 578T breast
M14 melanoma = test system: M14 melanoma
A549 NSCLC = test system: A549 NSCLC
SR leukemia = test system: SR leukemia
786-0 renal = test system: 786-0 renal
SF-268 CNS = test system: SF-268 CNS
BT-549 breast = test system: BT-549 breast
SNB-19 CNS = test system: SNB-19 CNS
ACHN renal = test system: ACHN renal
DU-145 prostate = test system: DU-145 prostate
K-562 leukemia = test system: K-562 leukemia
MOLT-4 leukemia = test system: MOLT-4 leukemia
OVCAR-5 ovarian = test system: OVCAR-5 ovarian
HCT-15 colon = test system: HCT-15 colon
NCI-H23 lung = test system: NCI-H23 lung
NCI-H226 lung = test system: NCI-H226 lung
SK-OV-3 ovarian = test system: SK-OV-3 ovarian
MALME-3M melanoma = test system: MALME-3M melanoma

## COc1ccccc1NC1=C(Cl)C(=O)c2nc(C)ccc2C1=O
HCT-116 colon
  GI50: 1530 nM
  TGI: 4160 nM
U251 CNS
  GI50: 1850 nM
  TGI: 3730 nM
HL-60(TB) leukemia
  GI50: 1370 nM
  TGI: 3520 nM
LOX IMVI melanoma
  GI50: 952 nM
  TGI: 2360 nM
SF-539 CNS
  GI50: 1680 nM
  TGI: 3130 nM
RPMI-8226 leukemia
  GI50: 1570 nM
  TGI: 4610 nM
OVCAR-8 ovarian
  GI50: 1610 nM
  TGI: 3250 nM
UACC-62 melanoma
  GI50: 1820 nM
  TGI: 3370 nM
OVCAR-4 ovarian
  GI50: 1210 nM
  TGI: 2490 nM
CAKI-1 renal
  GI50: 1500 nM
  TGI: 2870 nM
RXF 393 renal
  GI50: 1420 nM
  TGI: 2760 nM
EKVX NSCLC
  GI50: 1610 nM
  TGI: 3050 nM
NCI-H460 lung
  GI50: 3220 nM
  TGI: 12000 nM
SF-295 CNS
  GI50: 1850 nM
  TGI: 3420 nM
NCI/ADR-RES ovarian
  GI50: 2030 nM
  TGI: 5160 nM
A498 renal
  GI50: 1900 nM
  TGI: 4600 nM
HOP-62 NSCLC
  GI50: 2410 nM
  TGI: 6980 nM
HOP-92 NSCLC
  GI50: 1850 nM
  TGI: 3300 nM
UACC-257 melanoma
  GI50: 1570 nM
  TGI: 3090 nM
UO-31 renal
  GI50: 1420 nM
  TGI: 2730 nM
PC-3 prostate
  GI50: 1210 nM
  TGI: 2580 nM
SW-620 colon
  GI50: 1840 nM
  TGI: 3730 nM
SN12C renal
  GI50: 1700 nM
  TGI: 3290 nM
SK-MEL-2 melanoma
  GI50: 1810 nM
  TGI: 3350 nM
CCRF-CEM leukemia
  GI50: 1940 nM
  TGI: 8210 nM
HCC-2998 colon
  GI50: 1870 nM
  TGI: 3460 nM
TK-10 renal
  GI50: 2340 nM
  TGI: 3860 nM
IGROV1 ovarian
  GI50: 1460 nM
  TGI: 2920 nM
MDA-MB-231 breast
  GI50: 1190 nM
  TGI: 2530 nM
NCI-H522 lung
  GI50: 1810 nM
  TGI: 3360 nM
SK-MEL-28 melanoma
  GI50: 1850 nM
  TGI: 3340 nM
KM12 colon
  GI50: 1490 nM
  TGI: 3080 nM
SNB-75 CNS
  GI50: 1500 nM
  TGI: 2840 nM
SK-MEL-5 melanoma
  GI50: 1750 nM
  TGI: 3170 nM
MDA-MB-435
  GI50: 1700 nM
  TGI: 3110 nM
HT29 colon
  GI50: 2130 nM
  TGI: 4490 nM
MCF7 breast
  GI50: 1780 nM
  TGI: 4490 nM
HS 578T breast
  GI50: 2270 nM
  TGI: 5640 nM
M14 melanoma
  GI50: 1820 nM
  TGI: 3810 nM
A549 NSCLC
  GI50: 2440 nM
  TGI: 6240 nM
SR leukemia
  GI50: 794 nM
  TGI: 4250 nM
786-0 renal
  GI50: 1910 nM
  TGI: 3610 nM
SF-268 CNS
  GI50: 1530 nM
  TGI: 3050 nM
BT-549 breast
  GI50: 1720 nM
  TGI: 3270 nM
SNB-19 CNS
  GI50: 1810 nM
  TGI: 3720 nM
ACHN renal
  GI50: 1470 nM
  TGI: 2800 nM
DU-145 prostate
  GI50: 1720 nM
  TGI: 3110 nM
K-562 leukemia
  GI50: 290 nM
  TGI: 2940 nM
MOLT-4 leukemia
  GI50: 2270 nM
  TGI: 8600 nM
OVCAR-5 ovarian
  GI50: 1860 nM
  TGI: 3420 nM
HCT-15 colon
  GI50: 1330 nM
  TGI: 3020 nM
NCI-H23 lung
  GI50: 1470 nM
  TGI: 3310 nM
NCI-H226 lung
  GI50: 1930 nM
  TGI: 4520 nM
SK-OV-3 ovarian
  GI50: 12600 nM
  TGI: 27500 nM
MALME-3M melanoma
  GI50: 1710 nM
  TGI: 3190 nM
